The numbers were not newly measured in article PMC5245897 (PLoS ONE, 2017), which cites them from elsewhere.

This data set deals with GLP-1 receptor. Details: method as in PMID 8396143. The following applies: GLP-1 receptor antagonist.

With Exendin(9–39), the “GLP-1 receptor binding (in words)” value is “GLP-1 receptor antagonist binding with high affinity”.
